Laboratory results as given in the supplement of paper PMC10307832.

Columns and labels:
Test in all cases: relative viability (nuclei count vs DMSO), 5 days (fraction); higher = more cells survive
[1] = compound: CN[C@@H]1C[C@H]2O[C@@](C)([C@@H]1OC)n1c3ccccc3c3c4c(c5c6ccccc6n2c5c31)C(=O)NC4 [Staurosporine] + Cc1nc(Nc2ncc(C(=O)Nc3c(C)cccc3Cl)s2)cc(N2CCN(CCO)CC2)n1 [Dasatinib] (partner 0.075 µM)
How it was run: (§1)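 Nuclei were stained with Hoechst during a one-step fixation (final 0.05% Triton X-100, 1% formaldehyde, 1 ug/ml Hoechst) carried out 5 days after dosing, then counted on 4× images. The cells, lung cancer lines in 1536-well plates, had been dosed by pin tool the day after seeding with one drug alone or a fixed anchor-drug dose plus five library-drug doses (not always all listed) in √10 steps. Relative viability is the nuclei count in treated wells divided by that in vehicle wells, and each value is the median of duplicate plates.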

[2] = compound: CN[C@@H]1C[C@H]2O[C@@](C)([C@@H]1OC)n1c3ccccc3c3c4c(c5c6ccccc6n2c5c31)C(=O)NC4 [Staurosporine] + N=C(N)NC(=N)NCCc1ccccc1 [Phenformin] (partner 250 µM)
How it was run: as §1

Staurosporine + AZD7762 = compound: CN[C@@H]1C[C@H]2O[C@@](C)([C@@H]1OC)n1c3ccccc3c3c4c(c5c6ccccc6n2c5c31)C(=O)NC4 [Staurosporine] + NC(=O)Nc1cc(-c2cccc(F)c2)sc1C(=O)N[C@H]1CCCNC1 [AZD7762] (partner 0.2 µM)
How it was run: as §1

[3] = compound: O=c1[nH]cc(F)c(=O)[nH]1 [5-Fluorouracil] + Nc1ncn([C@H]2C[C@H](O)[C@@H](CO)O2)c(=O)n1 [Decitabine] (partner 2 µM)
How it was run: as §1

Cell Line | relative viability ([1]; first compound 0.005 µM) | relative viability ([1]; first compound 0.01581 µM) | relative viability ([1]; first compound 0.05 µM) | relative viability ([1]; first compound 0.1581 µM) | relative viability ([1]; first compound 0.5 µM) | relative viability ([2]; first compound 0.005 µM) | relative viability ([2]; first compound 0.01581 µM) | relative viability ([2]; first compound 0.05 µM) | relative viability ([2]; first compound 0.1581 µM) | relative viability ([2]; first compound 0.5 µM) | relative viability (Staurosporine + AZD7762; first compound 0.005 µM) | relative viability (Staurosporine + AZD7762; first compound 0.01581 µM) | relative viability (Staurosporine + AZD7762; first compound 0.1581 µM) | relative viability (Staurosporine + AZD7762; first compound 0.5 µM) | relative viability ([3]; first compound 0.02 µM) | relative viability ([3]; first compound 0.2 µM) | relative viability ([3]; first compound 0.6325 µM) | relative viability ([3]; first compound 2 µM) | relative viability (Staurosporine + AZD7762; first compound 0.05 µM)
HOP-62 | 0.343 | 0.164 | 0.109 | 0.124 | 0.0982 | 0.426 | 0.232 | 0.133 | 0.102 | 0.1 | 0.358 | 0.128 | 0.126 | 0.0794 | 0.247 | 0.211 | 0.256 | 0.246 | 
LC-2-ad | 0.488 | 0.188 | 0.193 | 0.194 | 0.141 | 0.485 | 0.2 | 0.154 |  | 0.171 |  | 0.276 | 0.12 | 0.0995 | 0.806 | 0.725 | 0.561 | 0.417 | 0.172
LCLC-97TM1 | 0.611 | 0.254 | 0.286 | 0.378 | 0.293 | 0.212 | 0.171 | 0.184 | 0.158 | 0.149 | 0.225 | 0.121 | 0.176 | 0.141 | 0.242 | 0.269 | 0.207 | 0.201 | 0.169
LCLC-103H | 0.307 | 0.108 | 0.113 | 0.134 | 0.103 | 0.296 | 0.211 | 0.16 | 0.108 | 0.105 | 0.827 | 0.41 | 0.231 | 0.194 | 0.734 | 0.636 | 0.652 | 0.524 | 0.334
LK-2 | 0.551 |  | 0.271 | 0.139 | 0.121 | 0.676 |  |  | 0.127 | 0.126 | 0.571 | 0.448 | 0.0558 | 0.0592 | 0.328 | 0.341 | 0.334 | 0.269 | 0.394
LOU-NH91 | 0.36 | 0.285 | 0.299 | 0.286 | 0.203 | 0.467 | 0.302 | 0.334 | 0.228 | 0.168 | 0.555 | 0.341 | 0.254 | 0.247 | 0.873 | 0.874 | 0.838 | 0.534 | 0.395
LU99A | 0.353 | 0.227 | 0.176 | 0.191 | 0.112 | 0.671 | 0.335 | 0.353 | 0.24 | 0.162 | 0.327 | 0.135 | 0.153 | 0.0961 | 0.898 | 0.898 | 0.731 | 0.483 | 0.205
LXF-289 | 0.119 | 0.068 | 0.112 | 0.0474 | 0.0343 | 0.325 | 0.0737 | 0.172 | 0.0511 | 0.0502 | 0.903 | 0.157 | 0.0835 | 0.0894 | 0.384 | 0.402 | 0.34 | 0.323 | 0.298
NCI-H23 | 0.833 |  | 0.259 | 0.13 | 0.154 | 0.763 |  | 0.351 | 0.174 | 0.161 | 0.223 | 0.126 | 0.12 | 0.0804 | 0.33 | 0.295 | 0.367 | 0.279 | 0.164
NCI-H520 | 0.278 | 0.251 | 0.215 | 0.176 | 0.171 | 0.758 | 0.233 | 0.394 | 0.25 | 0.166 |  |  |  |  | 0.505 | 0.556 | 0.479 | 0.552 | 
NCI-H661 | 0.67 | 0.349 | 0.381 | 0.347 | 0.123 | 0.277 | 0.235 | 0.27 | 0.19 | 0.131 |  |  |  |  | 0.574 | 0.596 | 0.495 | 0.551 | 
NCI-H1563 | 0.43 | 0.434 | 0.411 | 0.247 | 0.433 | 0.566 | 0.533 | 0.577 | 0.506 | 0.416 |  |  |  |  |  |  |  |  | 
NCI-H1623 | 0.635 | 0.425 | 0.651 | 0.553 | 0.41 | 0.574 | 0.578 | 0.631 | 0.59 | 0.306 |  |  |  |  |  |  |  |  | 
NCI-H1648 |  |  |  |  |  |  |  |  |  |  | 0.611 | 0.409 | 0.412 | 0.388 | 0.541 | 0.528 | 0.47 | 0.371 | 0.373
NCI-H1650 | 0.24 | 0.225 | 0.166 | 0.127 | 0.119 | 0.217 | 0.147 | 0.109 | 0.108 | 0.0714 |  |  |  |  | 0.573 | 0.473 | 0.348 | 0.271 | 
NCI-H1703 |  |  |  |  |  |  |  |  |  |  | 0.121 | 0.0954 | 0.083 | 0.118 |  |  |  |  | 0.107
NCI-H2009 | 0.197 | 0.158 | 0.152 | 0.153 | 0.116 | 0.207 | 0.188 | 0.216 | 0.131 | 0.0831 |  |  |  |  | 0.384 | 0.404 | 0.372 | 0.425 | 
NCI-H2023 | 0.365 | 0.198 | 0.126 | 0.0785 | 0.0455 | 0.214 | 0.16 | 0.128 | 0.0907 | 0.0615 |  |  |  |  | 0.271 | 0.141 | 0.106 | 0.0886 | 
NCI-H2228 | 0.328 | 0.245 | 0.232 | 0.069 | 0.0624 | 0.254 | 0.166 | 0.11 | 0.0655 | 0.0891 |  |  |  |  |  |  |  |  | 
SK-LU-1 | 0.183 |  |  | 0.102 | 0.1 | 0.235 | 0.111 |  | 0.0994 | 0.0726 |  |  |  |  | 0.636 | 0.692 | 0.592 | 0.548 | 
SK-MES-1 | 0.21 | 0.22 | 0.154 | 0.126 | 0.106 | 0.345 | 0.267 | 0.185 | 0.132 | 0.219 |  |  |  |  | 0.339 | 0.352 | 0.323 | 0.294 | 
SW 1573 | 0.129 | 0.116 | 0.0863 | 0.0538 | 0.0496 | 0.201 | 0.156 | 0.0959 | 0.101 | 0.0586 |  |  |  |  | 0.619 | 0.505 | 0.53 | 0.502 | 
